Test results from patent US20260224716A1, “PTH ANALOGS FOR THE TREATMENT OF HYPOPARATHYROIDISM” (priority 2020, published 2026).
Blank lines part the entries; values can stand above or below the compound they belong to. *1 amine or outer side, *2 acyl side, *3 side chain or, on linkers, in order; H or OH if unused. Where no end group is shown, it is not given here. Side-chain parts run from the residue outwards. The star is where a group is joined. C18 diacid = O=C(O)CCCCCCCCCCCCCCCCC(=O)*; γGlu = O=C(O)[C@H](CCC(=O)[*:2])N[*:1]; AEEA = NCCOCCOCC(=O)O

Columns and labels:
[1] = Rate of model dipeptide cleavage from hexapeptide in PBS (HPLC, LC-MS); format: physicochemical; conditions: cleavage of dipeptide A-B from model hexapeptide in PBS, 37° C.; unit not given or result in words
Description: The solution was incubated at 37° C.
The flow rate was 1 ml/min.

[2] = Cleavage half-life / conversion of PTH prodrugs in PBS pH 7.4, 37° C. by LC-MS; format: physicochemical; conditions: PBS buffer; dipeptide cleavage from PTH prodrug, PBS pH 7.4, 37° C.; read-out: Half life (converted)
Description: The resulting solution was incubated at 37° C. Aliquots were taken at designed time points and analyzed by LC-MS. […] Flow rate of 1 mL/min and a gradient of 10%-80% acetonitrile in water, with 0.1% trifluoroacetic acid over 10 min. […] The concentration of prodrug and drug were determined by their relative peak areas. The […] dissociation rate constant of the prodrug was determined by plotting the logarithm in the concentration of the prodrug at various time points.

PTH1 receptor = molecular target: T1, PTH1 receptor (Homo sapiens, UniProt Q03431); assay: Luciferase-based reporter gene assay for cAMP detection (HEK293 cells); format: cell-based; conditions: for potency at the PTH receptor: luciferase reporter of cAMP production; for EC50: HEK293 cells, PTH1 receptor, cAMP-responsive luciferase, 5 hours, read-out: Potency EC50
T1 construct: expressed in transfected cells; host or cells: HEK293
T1 sequence (Q03431 27-593): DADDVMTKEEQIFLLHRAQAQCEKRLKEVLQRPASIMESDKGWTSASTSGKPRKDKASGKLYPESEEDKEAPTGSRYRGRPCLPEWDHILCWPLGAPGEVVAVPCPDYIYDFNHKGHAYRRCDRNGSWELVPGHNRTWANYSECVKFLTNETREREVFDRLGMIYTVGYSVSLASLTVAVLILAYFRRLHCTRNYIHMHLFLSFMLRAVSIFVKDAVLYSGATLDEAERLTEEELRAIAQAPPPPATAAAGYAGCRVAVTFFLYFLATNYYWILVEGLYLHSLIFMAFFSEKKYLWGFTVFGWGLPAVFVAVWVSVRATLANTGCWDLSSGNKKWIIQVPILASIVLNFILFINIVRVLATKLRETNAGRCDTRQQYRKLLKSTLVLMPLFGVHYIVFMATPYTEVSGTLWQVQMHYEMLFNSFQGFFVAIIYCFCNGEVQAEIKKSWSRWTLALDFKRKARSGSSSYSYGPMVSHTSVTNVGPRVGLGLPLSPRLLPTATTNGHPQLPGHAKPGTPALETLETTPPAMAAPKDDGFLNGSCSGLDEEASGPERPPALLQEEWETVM
Description: At the end of the incubation, 50 μL of Steady-Lite Plus (PerkinElmer, Waltham, MA) were added to each well. The plate was shaken briefly, incubated four minutes and light output was measured on an EnSpire Alpha Multi-mode Plate Reader (PerkinElmer, Waltham, MA).

- half-life [2]: 73 h
- potency at the PTH receptor (PTH1 receptor; FIGS. 3A, 3B): low potency
Compound: CC[C@H](C)[C@H](NC(=O)[C@H](CCC(=O)O)NC(=O)[C@H](CO)NC(=O)[C@@H](NC(=O)[C@H](CO)NC(=O)CN(C)C(=O)[C@H](N)CCCCNC(=O)CC[C@H](NC(=O)CCCCCCCCCCCCCCCCC(=O)O)C(=O)O)C(C)C)C(=O)N[C@@H](CCC(N)=O)C(=O)N[C@@H](CC(C)C)C(=O)N[C@@H](CCSC)C(=O)N[C@@H](Cc1c[nH]cn1)C(=O)N[C@@H](CC(N)=O)C(=O)N[C@@H](CC(C)C)C(=O)NCC(=O)N[C@@H](CCCCN)C(=O)N[C@@H](Cc1c[nH]cn1)C(=O)N[C@@H](CC(C)C)C(=O)N[C@@H](CC(N)=O)C(=O)N[C@@H](CO)C(=O)N[C@@H](CCSC)C(=O)N[C@@H](CCC(=O)O)C(=O)N[C@@H](CCCNC(=N)N)C(=O)N[C@H](C(=O)N[C@@H](CCC(=O)O)C(=O)N[C@@H](Cc1c[nH]c2ccccc12)C(=O)N[C@@H](CC(C)C)C(=O)N[C@@H](CCCNC(=N)N)C(=O)N[C@@H](CCCCN)C(=O)N[C@@H](CCCCN)C(=O)N[C@@H](CC(C)C)C(=O)N[C@@H](CCC(N)=O)C(=O)N[C@@H](CC(=O)O)C(=O)N[C@H](C(=O)N[C@@H](Cc1c[nH]cn1)C(=O)N[C@@H](CC(N)=O)C(=O)N[C@@H](Cc1ccccc1)C(=O)N[C@@H](CCCCNC(=O)CC[C@H](NC(=O)CCCCCCCCCCCCCCCCC(=O)O)C(=O)O)C(N)=O)C(C)C)C(C)C [SEQ ID NO: 58]

- potency at the PTH receptor (PTH1 receptor; FIGS. 3A, 3B): decreases the potency
- EC50 (PTH1 receptor): 45.5 nM
Compound: CC[C@H](C)[C@H](NC(=O)[C@H](CCC(=O)O)NC(=O)[C@H](CO)NC(=O)[C@@H](NC(=O)[C@H](CO)NC(=O)CN(C)C(=O)[C@H](N)CCCCNC(=O)CC[C@H](NC(=O)CCCCCCCCCCCCCCCCC(=O)O)C(=O)O)C(C)C)C(=O)N[C@@H](CCC(N)=O)C(=O)N[C@@H](CC(C)C)C(=O)N[C@@H](CCSC)C(=O)N[C@@H](Cc1c[nH]cn1)C(=O)N[C@@H](CC(N)=O)C(=O)N[C@@H](CC(C)C)C(=O)NCC(=O)N[C@@H](CCCCN)C(=O)N[C@@H](Cc1c[nH]cn1)C(=O)N[C@@H](CC(C)C)C(=O)N[C@@H](CC(N)=O)C(=O)N[C@@H](CO)C(=O)N[C@@H](CCSC)C(=O)N[C@@H](CCC(=O)O)C(=O)N[C@@H](CCCNC(=N)N)C(=O)N[C@H](C(=O)N[C@@H](CCC(=O)O)C(=O)N[C@@H](Cc1c[nH]c2ccccc12)C(=O)N[C@@H](CC(C)C)C(=O)N[C@@H](CCCNC(=N)N)C(=O)N[C@@H](CCCCN)C(=O)N[C@@H](CCCCN)C(=O)N[C@@H](CC(C)C)C(=O)N[C@@H](CCC(N)=O)C(=O)N[C@@H](CC(=O)O)C(=O)N[C@H](C(=O)N[C@@H](Cc1c[nH]cn1)C(=O)N[C@@H](CCC(N)=O)C(=O)N[C@@H](Cc1ccccc1)C(=O)O)C(C)C)C(C)C [SEQ ID NO: 61]

- reduction of in vitro potency by alanine substitution at position 8 (PTH1 receptor): ~100 fold
- potency at the PTH receptor (PTH1 receptor; FIG. 4): decreases PTH activity
Compound: SVSEIQLAHNLGKHLNSMERVEWLRKKLQDVHK(γE-(miniPEG)2-γE-COC16H32CO2H)-OH (SVSEIQLAHNLGKHLNSMERVEWLRKKLQDVHK([γGlu-AEEA-AEEA-γGlu-C18 diacid])-OH; N-terminus assumed; SMILES CC[C@H](C)[C@H](NC(=O)[C@H](CCC(=O)O)NC(=O)[C@H](CO)NC(=O)[C@@H](NC(=O)[C@@H](N)CO)C(C)C)C(=O)N[C@@H](CCC(N)=O)C(=O)N[C@@H](CC(C)C)C(=O)N[C@@H](C)C(=O)N[C@@H](Cc1c[nH]cn1)C(=O)N[C@@H](CC(N)=O)C(=O)N[C@@H](CC(C)C)C(=O)NCC(=O)N[C@@H](CCCCN)C(=O)N[C@@H](Cc1c[nH]cn1)C(=O)N[C@@H](CC(C)C)C(=O)N[C@@H](CC(N)=O)C(=O)N[C@@H](CO)C(=O)N[C@@H](CCSC)C(=O)N[C@@H](CCC(=O)O)C(=O)N[C@@H](CCCNC(=N)N)C(=O)N[C@H](C(=O)N[C@@H](CCC(=O)O)C(=O)N[C@@H](Cc1c[nH]c2ccccc12)C(=O)N[C@@H](CC(C)C)C(=O)N[C@@H](CCCNC(=N)N)C(=O)N[C@@H](CCCCN)C(=O)N[C@@H](CCCCN)C(=O)N[C@@H](CC(C)C)C(=O)N[C@@H](CCC(N)=O)C(=O)N[C@@H](CC(=O)O)C(=O)N[C@H](C(=O)N[C@@H](Cc1c[nH]cn1)C(=O)N[C@@H](CCCCNC(=O)CC[C@H](NC(=O)COCCOCCNC(=O)COCCOCCNC(=O)CC[C@H](NC(=O)CCCCCCCCCCCCCCCCC(=O)O)C(=O)O)C(=O)O)C(=O)O)C(C)C)C(C)C; listed as Homo sapiens) [SEQ ID NO: 93, PTH(1-33), A8, K33(γE-2xOEG-γE-diacidC18)]

- potency at the PTH receptor (PTH1 receptor; FIG. 4): decreases the potency
Compound: k(N-Me)GSVSEIQLMHNLGKHLNSMERVEWLRKKLQDVHK(γE-(miniPEG)2-γE-COC16H32CO2H)-OH [SEQ ID NO: 80]

Second part, the compound before the results:

Compound: 7 (SVSEIQLMHNLGKHLNSMERVEWLRKKLQDVH; listed as Homo sapiens) [compound 7]
- t1/2 [1]: No cleavage

Compound: 11 (XXSVSEIQLMHNLGKHLNSMERVEWLRKKLQDVHNF; SITE 1 MISC_FEATURE - Xaa at position 1 is acylated dLys; SITE 2 MISC_FEATURE - Xaa at position 2 is N-methyl Gly; listed as Homo sapiens) [compound 11]
- t1/2 [1]: No cleavage

Compound: 12 (SVSEIQLMHNLGKHLNSMERVEWLRKKLQDVHNFX; VARIANT 35 MISC_FEATURE - Xaa at position 35 is an acylated Lys; SITE 35 MISC_FEATURE - C-terminal carboxyl group replaced with an amide; listed as Homo sapiens) [compound 12]
- t1/2 [1]: No cleavage

Compound: CC[C@H](C)[C@H](NC(=O)[C@H](CCC(=O)O)NC(=O)[C@H](CO)NC(=O)[C@@H](NC(=O)[C@H](CO)NC(=O)CN(C)C(=O)[C@H](N)CCCCNC(=O)CC[C@H](NC(=O)CCCCCCCCCCCCCCCCC(=O)O)C(=O)O)C(C)C)C(=O)N[C@@H](CCC(N)=O)C(=O)N[C@@H](CC(C)C)C(=O)N[C@@H](CCSC)C(=O)N[C@@H](Cc1c[nH]cn1)C(=O)N[C@@H](CC(N)=O)C(=O)N[C@@H](CC(C)C)C(=O)NCC(=O)N[C@@H](CCCCN)C(=O)N[C@@H](Cc1c[nH]cn1)C(=O)N[C@@H](CC(C)C)C(=O)N[C@@H](CC(N)=O)C(=O)N[C@@H](CO)C(=O)N[C@@H](CCSC)C(=O)N[C@@H](CCC(=O)O)C(=O)N[C@@H](CCCNC(=N)N)C(=O)N[C@H](C(=O)N[C@@H](CCC(=O)O)C(=O)N[C@@H](Cc1c[nH]c2ccccc12)C(=O)N[C@@H](CC(C)C)C(=O)N[C@@H](CCCNC(=N)N)C(=O)N[C@@H](CCCCN)C(=O)N[C@@H](CCCCN)C(=O)N[C@@H](CC(C)C)C(=O)N[C@@H](CCC(N)=O)C(=O)N[C@@H](CC(=O)O)C(=O)N[C@H](C(=O)N[C@@H](Cc1c[nH]cn1)C(=O)N[C@@H](CC(N)=O)C(=O)N[C@@H](Cc1ccccc1)C(=O)O)C(C)C)C(C)C [SEQ ID NO: 45]
- half-life [2]: 90 h
- potency at the PTH receptor (PTH1 receptor; FIGS. 3A, 3B): decreases the potency
- EC50 (PTH1 receptor): 45.5 nM

Compound: CC[C@H](C)[C@H](NC(=O)[C@H](CCC(=O)O)NC(=O)[C@H](CO)NC(=O)[C@@H](NC(=O)[C@@H](N)CO)C(C)C)C(=O)N[C@@H](CCC(N)=O)C(=O)N[C@@H](CC(C)C)C(=O)N[C@@H](CCSC)C(=O)N[C@@H](Cc1c[nH]cn1)C(=O)N[C@@H](CC(N)=O)C(=O)N[C@@H](CC(C)C)C(=O)NCC(=O)N[C@@H](CCCCN)C(=O)N[C@@H](Cc1c[nH]cn1)C(=O)N[C@@H](CC(C)C)C(=O)N[C@@H](CC(N)=O)C(=O)N[C@@H](CO)C(=O)N[C@@H](CCSC)C(=O)N[C@@H](CCC(=O)O)C(=O)N[C@@H](CCCNC(=N)N)C(=O)N[C@H](C(=O)N[C@@H](CCC(=O)O)C(=O)N[C@@H](Cc1c[nH]c2ccccc12)C(=O)N[C@@H](CC(C)C)C(=O)N[C@@H](CCCNC(=N)N)C(=O)N[C@@H](CCCCN)C(=O)N[C@@H](CCCCN)C(=O)N[C@@H](CC(C)C)C(=O)N[C@@H](CCC(N)=O)C(=O)N[C@@H](CC(=O)O)C(=O)N[C@H](C(=O)N[C@@H](Cc1c[nH]cn1)C(=O)N[C@@H](CC(N)=O)C(=O)N[C@@H](Cc1ccccc1)C(=O)N[C@@H](CCCCNC(=O)CC[C@H](NC(=O)CCCCCCCCCCCCCCCCC(=O)O)C(=O)O)C(N)=O)C(C)C)C(C)C [SEQ ID NO: 56]
- potency at the PTH receptor (PTH1 receptor; FIGS. 3A, 3B): retains high potency
- EC50 (PTH1 receptor): 2.9 nM

Compound: (dK)K(γE-COC16H32CO2H)GSVSEIQLMHNLGKHLNSMERVEWLRKKLQDVHNF [SEQ ID NO: 10, acylated dipeptide attached to PTH (1-34)]
- potency at the PTH receptor (PTH1 receptor; FIGS. 3A, 3B): decreases the potency
